The record followed here is US12428394B2, “2,4-disubstituted pyrimidine derivative, preparation method therefor and use thereof” (CHENGDU ZENITAR BIOMEDICAL TECHNOLOGY CO., LTD., priority 2019, dated 2025).

Assay [1] has as its target T1, JAK2 (Homo sapiens, UniProt O60674).
T1 construct: purchased Eurofins
Kind of assay: In vitro kinase activity experiment, JAK2. It counts as biochemical. Particulars: inhibition rate of enzyme at 500 nM; measured by Eurofins. An outline of the steps:
(§1)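 Radiometric filter-binding assay: kinase, its substrate and compound in 8 mM MOPS pH 7.0, 0.2 mM EDTA, 10 mM MnCl2, with 10 mM magnesium acetate and γ33P-ATP; MgATP started the reaction, 40 min at room temperature. Stopped with 3% phosphate, spotted on Filtermat A, washed, scintillation counted.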

The subject of assay [2] is MOLM-13 cells (FLT3-ITD-/+). Kind of assay: Inhibition of cell proliferation by MTT experiment, MOLM-13. The class given is cell-based, human. Particulars: MTT, 72 h, read-out: IC50 value on cell proliferation inhibition, MOLM-13 FLT3-ITD-/+. An outline of the steps: (§2)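 MTT assay in MV4-11, MOLM-13 (FLT3-ITD) and SET-2 (JAK2 V617F) cells at 10,000–15,000 cells/well in IMDM with 10% FBS. Cells are exposed to compound for 72 h at 37 °C, then to MTT for 1–3 h. IC50 is fitted from inhibition rates across concentrations.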

The test system of assay [3] is MV4-11 cells (FLT3-ITD+/+). Kind of assay: Inhibition of cell proliferation by MTT experiment, MV4-11. The class given is cell-based, human. Particulars: MTT, 72 h, read-out: IC50 value on cell proliferation inhibition, MV4-11 FLT3-ITD+/+. An outline of the steps:
as §2

Assay [4] deals with T2, FLT3 (Homo sapiens, UniProt P36888).
T2 construct: purchased Eurofins
T2 sequence (P36888 27-993): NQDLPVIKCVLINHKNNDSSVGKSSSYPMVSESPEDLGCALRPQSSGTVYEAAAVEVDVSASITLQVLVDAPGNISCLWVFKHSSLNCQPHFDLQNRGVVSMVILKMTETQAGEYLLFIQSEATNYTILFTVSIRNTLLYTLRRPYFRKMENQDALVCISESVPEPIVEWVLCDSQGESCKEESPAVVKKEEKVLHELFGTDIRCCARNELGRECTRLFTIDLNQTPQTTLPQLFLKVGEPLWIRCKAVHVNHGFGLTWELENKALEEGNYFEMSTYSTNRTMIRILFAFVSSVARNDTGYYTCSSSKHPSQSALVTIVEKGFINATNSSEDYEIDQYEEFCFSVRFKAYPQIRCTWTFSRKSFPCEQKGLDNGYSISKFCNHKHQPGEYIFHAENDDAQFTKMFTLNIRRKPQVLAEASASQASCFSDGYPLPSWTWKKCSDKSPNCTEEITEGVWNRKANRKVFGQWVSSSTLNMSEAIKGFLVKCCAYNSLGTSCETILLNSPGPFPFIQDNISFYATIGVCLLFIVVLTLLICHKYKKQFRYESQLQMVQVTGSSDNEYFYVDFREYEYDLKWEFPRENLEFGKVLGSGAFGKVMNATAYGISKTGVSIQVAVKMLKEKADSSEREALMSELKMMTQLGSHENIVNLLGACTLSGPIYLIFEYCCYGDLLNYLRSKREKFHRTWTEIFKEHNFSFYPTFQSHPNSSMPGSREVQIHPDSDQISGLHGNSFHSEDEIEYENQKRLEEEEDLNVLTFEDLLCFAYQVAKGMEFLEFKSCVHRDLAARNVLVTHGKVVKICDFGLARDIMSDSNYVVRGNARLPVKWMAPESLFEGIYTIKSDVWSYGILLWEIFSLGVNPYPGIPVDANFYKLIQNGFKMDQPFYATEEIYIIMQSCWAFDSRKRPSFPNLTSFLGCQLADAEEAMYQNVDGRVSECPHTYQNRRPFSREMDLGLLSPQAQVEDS
Kind of assay: In vitro kinase activity experiment, FLT3. Particulars: inhibition rate of enzyme at 500 nM, measured by Eurofins; for inhibition at 0.5 µM: 40 min, read-out: Kinase activity @ 500 nM (%) FLT3. It counts as biochemical. An outline of the steps: as §1

Assay [5] deals with SET-2 cells (JAK2 V617F). Kind of assay: Inhibition of cell proliferation by MTT experiment, SET-2. It counts as cell-based. Particulars: MTT, 72 h, read-out: IC50 value on cell proliferation inhibition, SET-2 (V617F). An outline of the steps: as §2

Read-outs that look alike come from different tables or passages of the source. Where only a bound is given, the exact number is not on record here.

T1 sequence (O60674 whole entry): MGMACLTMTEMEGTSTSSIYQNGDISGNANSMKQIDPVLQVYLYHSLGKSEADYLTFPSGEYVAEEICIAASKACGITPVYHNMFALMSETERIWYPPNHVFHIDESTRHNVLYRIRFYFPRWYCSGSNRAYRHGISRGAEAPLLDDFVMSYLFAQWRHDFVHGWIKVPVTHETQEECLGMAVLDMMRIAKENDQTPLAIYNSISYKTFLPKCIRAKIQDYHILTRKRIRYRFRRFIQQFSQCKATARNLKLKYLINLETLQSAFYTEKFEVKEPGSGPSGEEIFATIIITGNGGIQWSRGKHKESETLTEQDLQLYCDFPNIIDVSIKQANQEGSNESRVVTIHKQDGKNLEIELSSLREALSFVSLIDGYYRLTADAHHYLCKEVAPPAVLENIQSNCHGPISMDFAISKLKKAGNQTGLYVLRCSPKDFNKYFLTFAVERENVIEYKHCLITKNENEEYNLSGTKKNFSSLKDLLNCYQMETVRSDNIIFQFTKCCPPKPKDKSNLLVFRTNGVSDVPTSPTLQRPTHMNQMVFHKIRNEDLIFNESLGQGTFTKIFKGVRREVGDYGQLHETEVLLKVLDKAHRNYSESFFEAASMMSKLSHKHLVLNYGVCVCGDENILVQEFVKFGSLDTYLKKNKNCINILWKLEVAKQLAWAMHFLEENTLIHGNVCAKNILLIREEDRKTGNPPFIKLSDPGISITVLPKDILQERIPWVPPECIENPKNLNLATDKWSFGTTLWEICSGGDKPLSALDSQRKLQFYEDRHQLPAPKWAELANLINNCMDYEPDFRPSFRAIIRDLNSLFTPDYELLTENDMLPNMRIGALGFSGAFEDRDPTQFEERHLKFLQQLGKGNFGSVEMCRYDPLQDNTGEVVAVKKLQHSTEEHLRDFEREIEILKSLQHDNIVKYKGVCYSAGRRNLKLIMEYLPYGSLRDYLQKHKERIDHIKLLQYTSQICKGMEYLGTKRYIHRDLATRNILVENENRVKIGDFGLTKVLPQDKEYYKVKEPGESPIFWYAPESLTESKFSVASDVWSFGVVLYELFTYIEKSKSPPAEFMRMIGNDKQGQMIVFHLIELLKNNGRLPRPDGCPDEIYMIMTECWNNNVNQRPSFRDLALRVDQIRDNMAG

Turning to `CCCCN(C)C1CCN(c2ccc(Nc3ncc(C)c(-c4cnn(C(C)C)c4)n3)cc2F)CC1` [CLJ-50, 5-methyl-N-(3-fluoro-4-(4-N-butyl-4-N-methylaminopiperidine-1-yl)phenyl)-4-(1-isopropyl-1H-pyrazole-4-yl) pyrimidine-2-amine], in assay [1], the “Kinase activity @ 500 nM (%) JAK2” value is listed as 89%. Further, the IC50 was greater than 1000 nM in assay [2] (Homo sapiens, MOLM-13); 100 to 1000 nM in assay [3] (Homo sapiens, MV4-11); greater than 1000 nM in assay [5] (Homo sapiens, SET-2). For the same molecule, the inhibition at 0.5 µM in assay [4] amounted to 90%.
In the case of `CCCCCCN(C)C1CCN(c2ccc(Nc3ncc(C)c(-c4cnn(C(C)C)c4)n3)cc2F)CC1` [CLJ-51, 5-methyl-N-(3-fluoro-4-(4-N-hexyl-4-N-methylaminopiperidine-1-yl)phenyl)-4-(1-isopropyl-1H-pyrazole-4-yl) pyrimidine-2-amine], the “Kinase activity @ 500 nM (%) JAK2” value in assay [1] stood at 95%. For the same molecule, the IC50 in assay [2] (Homo sapiens, MOLM-13) was in the range of 1 to 10 nM; in assay [3] (Homo sapiens, MV4-11) it was 100 to 1000 nM; in assay [5] (Homo sapiens, SET-2), 100 to 1000 nM. Further, the inhibition at 0.5 µM in assay [4] turned out to be 93%.
Regarding `Cc1cnc(Nc2ccc(N3CCC(N(C)CC4CCCO4)CC3)c(F)c2)nc1-c1cnn(C(C)C)c1` (stereo not shown) [CLJ-53, N-(3-fluoro-4-(4-(methyl((tetrahydrofuran-2-yl)methyl)amino)piperidine-1-yl)phenyl)-4-(1-isopropyl-1H-pyrazole-4-yl)-5-methylpyrimidine-2-amine], the “Kinase activity @ 500 nM (%) JAK2” value in assay [1] was 100%. The IC50 in assay [2] (Homo sapiens, MOLM-13) is 10 to 100 nM; in assay [3] (Homo sapiens, MV4-11), 1 to 10 nM; in assay [5] (Homo sapiens, SET-2), 100 to 1000 nM. In addition, the inhibition at 0.5 µM in assay [4] was 98%.
Consider `Cc1cnc(Nc2ccc(N3CCC(N(C)CCN4CCOCC4)CC3)c(F)c2)nc1-c1cnn(C(C)C)c1` [CLJ-54, N-(3-fluoro-4-(4-(methyl (2-morpholinoethyl)amino)piperidine-1-yl)phenyl)-4-(1-isopropyl-1H-pyrazole-4-yl)-5-methylpyrimidine-2-amine], for which the “Kinase activity @ 500 nM (%) JAK2” value in assay [1] amounted to 17%. In addition, the IC50 in assay [2] (Homo sapiens, MOLM-13) is greater than 1000 nM; in assay [3] (Homo sapiens, MV4-11), greater than 1000 nM; in assay [5] (Homo sapiens, SET-2), greater than 1000 nM. Also, the inhibition at 0.5 µM in assay [4] worked out at 23%.
With `Cc1cnc(Nc2ccc(N3CCC(N(C)CCN4CCCCC4)CC3)c(F)c2)nc1-c1cnn(C(C)C)c1` [CLJ-55, N-(3-fluoro-4-(4-(methyl (1-piperidylethyl)amino)piperidine-1-yl)phenyl)-4-(1-isopropyl-1H-pyrazole-4-yl)-5-methylpyrimidine-2-amine], the “Kinase activity @ 500 nM (%) JAK2” value in assay [1] is on record as 25%. Moreover, the IC50 in assay [2] (Homo sapiens, MOLM-13) was greater than 1000 nM; in assay [3] (Homo sapiens, MV4-11), greater than 1000 nM; in assay [5] (Homo sapiens, SET-2) it was greater than 1000 nM. The inhibition at 0.5 µM in assay [4] came out at 20%.
`Cc1cnc(Nc2ccc(N3CCC(N(C)CCN4CCN(C)CC4)CC3)c(F)c2)nc1-c1cnn(C(C)C)c1` [CLJ-56, N-(3-fluoro-4-(4-(methyl (4-methyl-1-piperazine ethyl)amino)piperidine-1-yl)phenyl)-4-(1-isopropyl-1H-pyrazole-4-yl)-5-methylpyrimidine-2-amine]: in assay [1], the “Kinase activity @ 500 nM (%) JAK2” value worked out at 99%. In addition, the IC50 in assay [2] (Homo sapiens, MOLM-13) lay in the range of 10 to 100 nM; in assay [3] (Homo sapiens, MV4-11), 10 to 100 nM; in assay [5] (Homo sapiens, SET-2) it was 100 to 1000 nM. Further, in assay [4], the inhibition at 0.5 µM came to 96%.
With `CCCN1CCN(CCN(C)C2CCN(c3ccc(Nc4ncc(C)c(-c5cnn(C(C)C)c5)n4)cc3F)CC2)CC1` [CLJ-57, N-(3-fluoro-4-(4-(methyl (4-propyl-1-piperazine ethyl)amino)piperidine-1-yl)phenyl)-4-(1-isopropyl-1H-pyrazole-4-yl)-5-methylpyrimidine-2-amine], the “Kinase activity @ 500 nM (%) JAK2” value in assay [1] amounted to 97%. The IC50 was in the range of 10 to 100 nM in assay [2] (Homo sapiens, MOLM-13); 1 to 10 nM in assay [3] (Homo sapiens, MV4-11); 100 to 1000 nM in assay [5] (Homo sapiens, SET-2). The inhibition at 0.5 µM in assay [4] stood at 96%.
The like results for `Cc1cnc(Nc2ccc(N3CCC(N(C)CCN4CCN(C(C)C)CC4)CC3)c(F)c2)nc1-c1cnn(C(C)C)c1` [CLJ-58, N-(3-fluoro-4-(4-(methyl (4-isopropyl-1-piperazine ethyl)amino)piperidine-1-yl)phenyl)-4-(1-isopropyl-1H-pyrazole-4-yl)-5-methylpyrimidine-2-amine] were, in that order, 95%, 10 to 100 nM, 1 to 10 nM, 100 to 1000 nM and 96%.
For the molecule `CCN(CCN1CCOCC1)C1CCN(c2ccc(Nc3ncc(C)c(-c4cnn(C(C)C)c4)n3)cc2F)CC1` [CLJ-59, N-(3-fluoro-4-(4-(ethyl(morpholinoethyl)amino)piperidine-1-yl)phenyl)-4-(1-isopropyl-1H-pyrazole-4-yl)-5-methylpyrimidine-2-amine], in assay [1], the “Kinase activity @ 500 nM (%) JAK2” value is recorded as 98%. The IC50 lay in the range of 100 to 1000 nM in assay [2] (Homo sapiens, MOLM-13); 1 to 10 nM in assay [3] (Homo sapiens, MV4-11); 100 to 1000 nM in assay [5] (Homo sapiens, SET-2). Besides, the inhibition at 0.5 µM in assay [4] was found to be 97%.
For the molecule `CCCN(CCN1CCOCC1)C1CCN(c2ccc(Nc3ncc(C)c(-c4cnn(C(C)C)c4)n3)cc2F)CC1` [CLJ-60, N-(3-fluoro-4-(4-(propyl(morpholinoethyl)amino)piperidine-1-yl)phenyl)-4-(1-isopropyl-1H-pyrazole-4-yl)-5-methylpyrimidine-2-amine], the “Kinase activity @ 500 nM (%) JAK2” value in assay [1] was 100%. Moreover, the IC50 in assay [2] (Homo sapiens, MOLM-13) was in the range of 10 to 100 nM; in assay [3] (Homo sapiens, MV4-11), 1 to 10 nM; in assay [5] (Homo sapiens, SET-2) it was 100 to 1000 nM. The inhibition at 0.5 µM in assay [4] stood at 97%.
The like results for `Cc1cnc(Nc2ccc(N3CCC(CN(C)CCN4CCOCC4)CC3)c(F)c2)nc1-c1cnn(C(C)C)c1` [CLJ-61, N-(3-fluoro-4-(4-(methyl(morpholinoethyl)aminomethyl)piperidine-1-yl)phenyl)-4-(1-isopropyl-1H-pyrazole-4-yl)-5-methylpyrimidine-2-amine] were, in that order, 99%, 10 to 100 nM, 1 to 10 nM, 100 to 1000 nM and 98%.
The like results for `Cc1cnc(Nc2ccc(N3CCC[C@@H](N(C)C(=O)CCC#N)C3)c(F)c2)nc1-c1cnn(C(C)C)c1` [CLJ-65, (R)-3-cyano-N-(1-(2-fluoro-4-((4-(1-isopropyl-1H-pyrazole-4-yl)-5-methylpyrimidine-2-yl)amino)phenyl)piperidine-3-yl)-N-methylpropionamide] were, in that order, 90%, 10 to 100 nM, 10 to 100 nM, 100 to 1000 nM and 89%.
The like results for `Cc1cnc(Nc2ccc(N3CCC4(CC3)CNC4)c(F)c2)nc1-c1cnn(C(C)C)c1` [CLJ-66, N-(3-fluoro-4-(2,7-diazaspiro[3.5]nonane-7-yl)phenyl)-4-(1-isopropyl-1H-pyrazole-4-yl)-5-methylpyrimidine-2-amine] were, in that order, 93%, 100 to 1000 nM, 10 to 100 nM, 100 to 1000 nM and 94%.
Turning to `Cc1cnc(Nc2ccc(N3CCC4(CC3)CN(CCO)C4)c(F)c2)nc1-c1cnn(C(C)C)c1` [CLJ-67, N-(3-fluoro-4-(2,7-diazaspiro[3.5]nonane-2-hydroxyethyl-7-yl)phenyl)-4-(1-isopropyl-1H-pyrazole-4-yl)-5-methylpyrimidine-2-amine], the “Kinase activity @ 500 nM (%) JAK2” value in assay [1] is on record as 96%. In addition, the IC50 fell in the range of 100 to 1000 nM in assay [2], 10 to 100 nM in assay [3] and 100 to 1000 nM in assay [5]. The “Kinase activity @ 500 nM (%) FLT3” value in assay [4] came out at 98%.
